This passage reports IC50 results from patent US20080242661A1, “Novel compounds useful for the treatment of degenerative & inflammatory diseases” (priority 2006, published 2008).

The target in this test is purified PDE1A enzyme (Homo sapiens, UniProt P54750). Nature of the test: In vitro PDE1A assay, dose response (Biomol Cyclic Nucleotide Phosphodiesterase Assay Kit, colorimetric). To be noted: 100 μM cAMP, 45 min at 37° C., 8 points from 20 μM, duplicate. It counts as biochemical. An excerpt: For the dose response and further screening, we used the Cyclic Nucleotide Phosphodiesterase Assay Kit from Biomol, a colorimetric, non-radioactive assay. The basis for the assay is the cleavage of cAMP by PDE1A. The 5′AMP is further cleaved into the nucleoside and phosphate by the enzyme 5′-nucleotidase (catnr KI-307). The phosphate released due to enzymatic cleavage is quantified using BIOMOL GREEN™ reagent (catnr AK-111) in a modified Malachite Green assay 1,2. A PDE1A inhibitor will result in a decrease of the signal.
For the enzymatic reaction a mix of 25 μL with purified PDE1A enzyme, 100 μM cAMP, 5′Nucleotidase and the compound is made in a clear 384-plate. The reaction buffer is Tris 20 mM pH 7.4, 4 μg/ml calmodulin, 3 mM MgCl2, 1.5 mM CaCl2, 0.2 mg/mL BSA and 0.001% Brij-35. After an incubation of 45 minutes at 37° C., the reaction is stopped by the addition of 50 μL BIOMOL GREEN™ reagent. After 30 minutes incubation at room temperature, the readout is performed on the Envision (absorption at 615 nm).
All compounds are tested in duplicate starting from 20 μM followed by a ⅓ serial dilution, 8 points (20 μM-6.67 μM-2.22 μM-740 nM-247 nM-82 nM-27 nM-9 nM) in a final concentration of 1% DMSO. As the positive dose response control compound Vardenafil is used. For the calculation of z′ and PIN values 10 μM Vardenafil is used as positive control (100% inhibition) and 1% DMSO as negative control (0% inhibition).
The following compounds have been or can be prepared according to the synthetic methods described above. For the purpose of Table 2 below, activity of each compound, which can be determined using the PDE1A assay method described in above, is expressed as follows: […]
For the compound `CCCc1nn(C)c2c(=O)[nH]c(NCc3ccn(-c4ccccc4)n3)nc12` [Example 57, 1-methyl-5-((1-phenyl-1H-pyrazol-3-yl)methylamino)-3-propyl-1H-pyrazolo[4,3-d]pyrimidin-7(6H)-one], the IC50 lay in the range of 101 to 500 nM.
The result for `CCCc1nn(C)c2c(=O)[nH]c(N(Cc3ccccc3)C(C)C)nc12` [Example 28, 5-(benzyl(isopropyl)amino)-1-methyl-3-propyl-1H-pyrazolo[4,3-d]pyrimidin-7(6H)-one] reads 101 to 500 nM; that for `CCCc1nn(C)c2c(=O)[nH]c(N3CCc4cc(F)ccc4C3)nc12` [Example 34, 5-(6-fluoro-3,4-dihydroisoquinolin-2(1H)-yl)-1-methyl-3-propyl-1H-pyrazolo[4,3-d]pyrimidin-7(6H)-one], 101 to 500 nM; that for `CCCc1nn(C)c2c(=O)[nH]c(N(C)CC(C)CCC)nc12` (centres unmarked) [Example 123, 1-methyl-5-(methyl(2-methylpentyl)amino)-3-propyl-1H-pyrazolo[4,3-d]pyrimidin-7(6H)-one], 101 to 500 nM.
On to `CCCc1nn(C)c2c(=O)[nH]c(N(CCC)CCc3ccc(Cl)cc3)nc12` [Example 75, 5-((4-chlorophenethyl)(propyl)amino)-1-methyl-3-propyl-1H-pyrazolo[4,3-d]pyrimidin-7(6H)-one], for which the IC50 was 101 to 500 nM.
The figure for `CCCc1nn(C)c2c(=O)[nH]c(N(C)Cc3ccnc(N4CCCC4)c3)nc12` [Example 41, 1-methyl-5-(methyl((2-(pyrrolidin-1-yl)pyridin-4-yl)methyl)amino)-3-propyl-1H-pyrazolo[4,3-d]pyrimidin-7(6H)-one] is more than 500 nM.
In the case of `CCCN(CCC)c1nc2c(C(C)(C)C)nn(C)c2c(=O)[nH]1` [Example 89, 3-tert-butyl-5-(dipropylamino)-1-methyl-1H-pyrazolo[4,3-d]pyrimidin-7(6H)-one], the concentration for half-maximal inhibition (IC50) is less than 100 nM.
`CCCc1nn(C)c2c(=O)[nH]c(NCCc3ccc(Cl)cc3)nc12` [Example 79, 5-(4-chlorophenethylamino)-1-methyl-3-propyl-1H-pyrazolo[4,3-d]pyrimidin-7(6H)-one]: the IC50 was in the range of 101 to 500 nM.
`CCCc1nn(C)c2c(=O)[nH]c(NCc3ccccc3OCCN3CCOCC3)nc12` [Example 50, 1-methyl-5-(2-(2-morpholinoethoxy)benzylamino)-3-propyl-1H-pyrazolo[4,3-d]pyrimidin-7(6H)-one] showed an IC50 of more than 500 nM.
`CCCc1nn(C)c2c(=O)[nH]c(NCc3cccc(N4CCOCC4)c3)nc12` [Example 56, 1-methyl-5-(3-morpholinobenzylamino)-3-propyl-1H-pyrazolo[4,3-d]pyrimidin-7(6H)-one] had an IC50 of 101 to 500 nM.
The result for `CCCc1nn(C)c2c(=O)[nH]c(NCCc3cnn(-c4ccccc4)c3)nc12` [Example 88, 1-methyl-5-(2-(1-phenyl-1H-pyrazol-4-yl)ethylamino)-3-propyl-1H-pyrazolo[4,3-d]pyrimidin-7(6H)-one] reads more than 500 nM; that for `CCCc1nn(C)c2c(=O)[nH]c(Nc3ccc4[nH]ncc4c3)nc12` [Example 7, 5-(1H-indazol-5-ylamino)-1-methyl-3-propyl-1H-pyrazolo[4,3-d]pyrimidin-7(6H)-one], more than 500 nM.
The figure for `CCCc1nn(C)c2c(=O)[nH]c(N(C)Cc3cc4cccnc4s3)nc12` [Example 36, 1-methyl-5-(methyl(thieno[2,3-b]pyridin-2-ylmethyl)amino)-3-propyl-1H-pyrazolo[4,3-d]pyrimidin-7(6H)-one] is 101 to 500 nM; for `CCCc1nn(C)c2c(=O)[nH]c(N(C)Cc3cc(C)n(C)n3)nc12` [Example 14, 5-(((1,5-dimethyl-1H-pyrazol-3-yl)methyl)(methyl)amino)-1-methyl-3-propyl-1H-pyrazolo[4,3-d]pyrimidin-7(6H)-one] it is 101 to 500 nM; for `CCC(C)CN(Cc1cccc(-n2cncn2)c1)c1nc2c(C(C)(C)C)nn(C)c2c(=O)[nH]1` (centres unmarked) [Example 118] it is less than 100 nM.
The result for `CCCc1nn(C)c2c(=O)[nH]c(N3CCN(C(=O)C(c4ccccc4)c4ccccc4)CC3)nc12` [Example 59, 5-(4-(2,2-diphenylacetoyl)piperazin-1-yl)-1-methyl-3-propyl-1H-pyrazolo[4,3-d]pyrimidin-7(6H)-one] reads more than 500 nM; that for `CCCc1nn(C)c2c(=O)[nH]c(N(C)Cc3cccc(N4CCOCC4)n3)nc12` [Example 42, 1-methyl-5-(methyl((6-morpholinopyridin-2-yl)methyl)amino)-3-propyl-1H-pyrazolo[4,3-d]pyrimidin-7(6H)-one], 101 to 500 nM.
Compound `CN(CCC(C)(C)C)c1nc2c(C(C)(C)C)nn(C)c2c(=O)[nH]1` [Example 111, 3-tert-butyl-5-((3,3-dimethylbutyl)(methyl)amino)-1-methyl-1H-pyrazolo[4,3-d]pyrimidin-7(6H)-one] came in with an IC50 of less than 100 nM.
The compound `CCCc1nn(C)c2c(=O)[nH]c(N(Cc3cccc(-n4cncn4)c3)CC(C)C)nc12` [Example 96] returned an IC50 of less than 100 nM.
`CCCc1nn(C)c2c(=O)[nH]c(N(C)Cc3cccc(-c4csc(C)n4)c3)nc12` [Example 65, 1-methyl-5-(methyl(3-(2-methylthiazol-4-yl)benzyl)amino)-3-propyl-1H-pyrazolo[4,3-d]pyrimidin-7(6H)-one]: the IC50 lay within 101 to 500 nM.
In turn, `CCC(C)CN(Cc1cccc(N2CCOCC2)c1)c1nc2c(C(C)(C)C)nn(C)c2c(=O)[nH]1` (centres unmarked) [Example 117, 3-tert-butyl-1-methyl-5-((2-methylbutyl)(3-morpholinobenzyl)amino)-1H-pyrazolo[4,3-d]pyrimidin-7(6H)-one] had an IC50 of less than 100 nM.
Turning to `CCCN(CCC)c1nc2c(C3CC3)nn(C)c2c(=O)[nH]1` [Example 125, 3-cyclopropyl-5-(dipropylamino)-1-methyl-1H-pyrazolo[4,3-d]pyrimidin-7(6H)-one], the IC50 lay in the range of 101 to 500 nM.
The figure for `CCCc1nn(C)c2c(=O)[nH]c(NCc3cccc(-n4cncn4)c3)nc12` [Example 73] is 101 to 500 nM.
The result for `CCCc1nn(C)c2c(=O)[nH]c(N(Cc3cccc(-n4cccn4)c3)CC(C)C)nc12` [Example 94] reads less than 100 nM; that for `CCCc1nn(C)c2c(=O)[nH]c(N(C)Cc3ccc(N4CCOCC4)cc3)nc12` [Example 61, 1-methyl-5-(methyl(4-morpholinobenzyl)amino)-3-propyl-1H-pyrazolo[4,3-d]pyrimidin-7(6H)-one], 101 to 500 nM; that for `CCCCN(Cc1ccc(Cl)c(Cl)c1)c1nc2c(CCC)nn(C)c2c(=O)[nH]1` [Example 46, 5-(butyl(3,4-dichlorobenzyl)amino)-1-methyl-3-propyl-1H-pyrazolo[4,3-d]pyrimidin-7(6H)-one], 101 to 500 nM.
For `CCCc1nn(C)c2c(=O)[nH]c(NCc3ccc4c(ccn4C)c3)nc12` [Example 68, 1-methyl-5-((1-methyl-1H-indol-5-yl)methylamino)-3-propyl-1H-pyrazolo[4,3-d]pyrimidin-7(6H)-one], the IC50 lay in the range of 101 to 500 nM.
The compound `CCCc1nn(C)c2c(=O)[nH]c(NCc3ccc(F)cc3)nc12` [Example 23, 5-(4-fluorobenzylamino)-1-methyl-3-propyl-1H-pyrazolo[4,3-d]pyrimidin-7(6H)-one] returned an IC50 of more than 500 nM.
The figure for `CCCc1nn(C)c2c(=O)[nH]c(N(C)Cc3cccc(Cl)c3)nc12` [Example 15, 5-((3-chlorobenzyl)(methyl)amino)-1-methyl-3-propyl-1H-pyrazolo[4,3-d]pyrimidin-7(6H)-one] is 101 to 500 nM.
Turning to `CC(C)CN(Cc1cccc(-n2cccn2)c1)c1nc2c(C(C)(C)C)nn(C)c2c(=O)[nH]1` [Example 93], the IC50 was less than 100 nM.
`CCCc1nn(C)c2c(=O)[nH]c(NCCc3ccc(OCC)c(OCC)c3)nc12` [Example 82, 5-(3,4-diethoxyphenethylamino)-1-methyl-3-propyl-1H-pyrazolo[4,3-d]pyrimidin-7(6H)-one] returned an IC50 of more than 500 nM.
The compound `CC(C)CN(C)c1nc2c(C(C)(C)C)nn(C)c2c(=O)[nH]1` [Example 99, 3-tert-butyl-5-(isobutyl(methyl)amino)-1-methyl-1H-pyrazolo[4,3-d]pyrimidin-7(6H)-one] returned an IC50 of less than 100 nM.
The figure for `CCC(CC)CN(C)c1nc2c(C(C)(C)C)nn(C)c2c(=O)[nH]1` [Example 105, 3-tert-butyl-5-((2-ethylbutyl)(methyl)amino)-1-methyl-1H-pyrazolo[4,3-d]pyrimidin-7(6H)-one] is less than 100 nM; for `CCCc1nn(C)c2c(=O)[nH]c(N(C)Cc3ccc(N4CCCCC4)cc3)nc12` [Example 3, 1-methyl-5-(methyl(4-(piperidin-1-yl)benzyl)amino)-3-propyl-1H-pyrazolo[4,3-d]pyrimidin-7(6H)-one] it is 101 to 500 nM; for `CCCc1nn(C)c2c(=O)[nH]c(N(CCC(C)C)Cc3ccc(Cl)c(Cl)c3)nc12` [Example 45, 5-((3,4-dichlorobenzyl)(isopentyl)amino)-1-methyl-3-propyl-1H-pyrazolo[4,3-d]pyrimidin-7(6H)-one] it is less than 100 nM.
